In patent US8916711B2, “Imidazothiazole-chalcone derivatives as potential anticancer agents and process for the preparation thereof” (Council of Scientific and Industrial Research, priority 2009, dated 2014):

system: MDAMB-435; assay: NCI in vitro cytotoxicity (SRB, 48 h), Melanoma panel; assay type: cell-based; conditions: Homo sapiens, MDA-MB-435; MDAMB-435, Melanoma; 48 h exposure

Going from COc1ccc(-c2nc3sccn3c2/C=C/C(=O)c2cc(OC)c(OC)c(OC)c2)cc1 [Compound 7a, (E)-3-(6-(4-methoxyphenyl)imidazo[2,1-b]thiazol-5-yl)-1-(3,4,5-trimethoxyphenyl) prop-2-en-1-one] to COc1cc(C(=O)/C=C/c2c(-c3ccc(F)cc3)nc3sccn23)cc(OC)c1OC [Compound 7e, (E)-3-(6-(4-fluorophenyl)imidazo[2,1-b]thiazol-5-yl)-1-(3,4,5-trimethoxyphenyl)prop-2-en-1-one], the GI50 falls from 2850 nM to 1820 nM (1.6-fold).

COc1cc(C(=O)/C=C/c2c(C(F)(F)F)nc3sccn23)cc(OC)c1OC [Compound 7f, (E)-3-(6-(trifluoromethyl)imidazo[2,1-b]thiazol-5-yl)-1-(3,4,5-trimethoxyphenyl)prop-2-en-1-one] and COc1ccc(C(=O)/C=C/c2c(C(F)(F)F)nc3sccn23)cc1OC [Compound 8f, (E)-1-(3,4-dimethoxyphenyl)-3-(6-(trifluoromethyl)imidazo[2,1-b]thiazol-5-yl) prop-2-en-1-one] are within 1.5-fold of each other in GI50: 1610 nM for the first, 1850 nM for the second.

In the case of COc1cc(C(=O)/C=C/c2c(-c3ccc(F)cc3)nc3sc(C)cn23)cc(OC)c1OC [Compound 19e, (E)-3-(6-(4-fluorophenyl)-2-methylimidazo[2,1-b]thiazol-5-yl)-1-(3,4,5-trimethoxyphenyl)prop-2-en-1-one], the GI50 is reported as 1750 nM.
